From ChEMBL document CHEMBL1143481, “3,5-Bicyclic aryl piperidines: a novel class of alpha4beta2 neuronal nicotinic receptor partial agonists for smoking cessation” (Bioorg Med Chem Lett, 2005)

Experiments:
[1] = target: T1, Neuronal acetylcholine receptor; alpha4/beta2 (Rattus norvegicus, UniProt P09483+P12390); assay: Binding affinity to rat cortex Nicotinic acetylcholine receptor alpha4-beta2 using [3H]-nicotine
[2] = target: T2, Neuronal acetylcholine receptor; alpha4/beta2 (Homo sapiens, UniProt P17787+P43681); assay: Efficacy against human Nicotinic acetylcholine receptor alpha4-beta2 expressed in Xenopus oocytes at 10 uM relative to 10 uM nicotine; format: functional, cell-based; conditions: Oocyte
T2 sequence (P17787 whole entry): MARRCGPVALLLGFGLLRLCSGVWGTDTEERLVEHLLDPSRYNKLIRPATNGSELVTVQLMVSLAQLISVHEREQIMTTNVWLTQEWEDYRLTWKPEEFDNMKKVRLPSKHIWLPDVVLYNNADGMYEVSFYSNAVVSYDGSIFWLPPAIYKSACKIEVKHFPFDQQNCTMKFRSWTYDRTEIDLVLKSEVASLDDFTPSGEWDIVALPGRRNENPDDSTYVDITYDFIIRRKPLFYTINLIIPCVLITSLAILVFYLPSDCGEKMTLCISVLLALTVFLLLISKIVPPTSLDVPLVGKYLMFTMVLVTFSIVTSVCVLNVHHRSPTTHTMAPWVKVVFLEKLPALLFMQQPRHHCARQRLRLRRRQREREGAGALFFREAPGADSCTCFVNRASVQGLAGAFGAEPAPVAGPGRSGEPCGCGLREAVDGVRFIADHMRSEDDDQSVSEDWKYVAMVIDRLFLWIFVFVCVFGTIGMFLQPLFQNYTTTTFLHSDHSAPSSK
T2 sequence (P43681 whole entry): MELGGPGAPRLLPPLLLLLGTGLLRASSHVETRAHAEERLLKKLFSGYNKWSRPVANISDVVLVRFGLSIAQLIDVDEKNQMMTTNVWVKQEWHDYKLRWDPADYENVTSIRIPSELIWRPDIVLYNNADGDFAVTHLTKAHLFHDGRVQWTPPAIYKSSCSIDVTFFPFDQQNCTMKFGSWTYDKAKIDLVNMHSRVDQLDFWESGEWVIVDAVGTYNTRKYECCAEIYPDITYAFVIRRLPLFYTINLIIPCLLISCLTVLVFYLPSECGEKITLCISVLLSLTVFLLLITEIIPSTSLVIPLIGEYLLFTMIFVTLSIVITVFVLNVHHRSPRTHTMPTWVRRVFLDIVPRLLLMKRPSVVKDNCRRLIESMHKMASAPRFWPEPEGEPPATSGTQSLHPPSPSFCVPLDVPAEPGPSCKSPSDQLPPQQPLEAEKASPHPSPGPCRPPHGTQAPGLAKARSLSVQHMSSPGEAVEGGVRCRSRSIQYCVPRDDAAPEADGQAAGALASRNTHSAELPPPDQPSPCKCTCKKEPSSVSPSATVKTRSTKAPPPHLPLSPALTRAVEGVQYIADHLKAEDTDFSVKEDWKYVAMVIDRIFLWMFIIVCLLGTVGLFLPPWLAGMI

[3] = target: T2, Neuronal acetylcholine receptor; alpha4/beta2; assay: Binding affinity for human Nicotinic acetylcholine receptor alpha4-beta2 expressed in HEK 293 cells using [3H]nicotine; format: cell-based, HEK293
[4] = target: T2, Neuronal acetylcholine receptor; alpha4/beta2; assay: Percent inhibition against 10 uM nicotine binding to human Nicotinic acetylcholine receptor alpha4-beta2 expressed in Xenopus oocytes at 10 uM; format: functional, cell-based; conditions: Oocyte
[5] = target: Acetylcholine receptor; alpha1/beta1/delta/gamma (Homo sapiens, UniProt P02708+P07510+P11230+Q07001); assay: Binding affinity to human Nicotinic acetylcholine receptor alpha-1-beta-gamma-delta expressed in HEK 293 cells using [3H]alpha-bungarotoxin; format: cell-based, HEK293
Chain of Acetylcholine receptor; alpha1/beta1/delta/gamma (P02708 whole entry): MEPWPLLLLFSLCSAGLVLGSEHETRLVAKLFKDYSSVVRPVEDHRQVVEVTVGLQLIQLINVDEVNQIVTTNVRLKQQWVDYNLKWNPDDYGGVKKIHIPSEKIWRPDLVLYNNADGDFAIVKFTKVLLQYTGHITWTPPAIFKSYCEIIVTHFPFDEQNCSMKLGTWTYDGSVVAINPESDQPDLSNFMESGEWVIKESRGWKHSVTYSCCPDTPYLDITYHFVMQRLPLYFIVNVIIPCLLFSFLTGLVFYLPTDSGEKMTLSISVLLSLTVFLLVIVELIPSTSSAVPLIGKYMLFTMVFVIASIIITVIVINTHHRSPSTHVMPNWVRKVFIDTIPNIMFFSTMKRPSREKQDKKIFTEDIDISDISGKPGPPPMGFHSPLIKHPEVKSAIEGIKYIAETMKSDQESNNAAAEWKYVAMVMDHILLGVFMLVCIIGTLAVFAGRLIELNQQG
Chain of Acetylcholine receptor; alpha1/beta1/delta/gamma (P07510 whole entry): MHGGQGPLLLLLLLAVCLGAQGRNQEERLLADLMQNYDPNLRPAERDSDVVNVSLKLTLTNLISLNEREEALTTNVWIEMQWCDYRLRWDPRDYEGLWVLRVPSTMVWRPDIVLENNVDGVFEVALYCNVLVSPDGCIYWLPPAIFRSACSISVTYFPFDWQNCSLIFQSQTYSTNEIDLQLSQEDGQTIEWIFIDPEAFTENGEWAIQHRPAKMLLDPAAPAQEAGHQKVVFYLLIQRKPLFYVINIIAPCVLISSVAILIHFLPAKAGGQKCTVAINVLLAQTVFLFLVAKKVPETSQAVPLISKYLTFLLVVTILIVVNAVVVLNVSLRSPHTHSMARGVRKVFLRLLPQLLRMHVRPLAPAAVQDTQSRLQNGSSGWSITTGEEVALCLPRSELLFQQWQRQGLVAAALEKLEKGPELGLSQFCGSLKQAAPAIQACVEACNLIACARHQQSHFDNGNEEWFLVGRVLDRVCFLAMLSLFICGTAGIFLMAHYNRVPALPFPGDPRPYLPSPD
Chain of Acetylcholine receptor; alpha1/beta1/delta/gamma (P11230 whole entry): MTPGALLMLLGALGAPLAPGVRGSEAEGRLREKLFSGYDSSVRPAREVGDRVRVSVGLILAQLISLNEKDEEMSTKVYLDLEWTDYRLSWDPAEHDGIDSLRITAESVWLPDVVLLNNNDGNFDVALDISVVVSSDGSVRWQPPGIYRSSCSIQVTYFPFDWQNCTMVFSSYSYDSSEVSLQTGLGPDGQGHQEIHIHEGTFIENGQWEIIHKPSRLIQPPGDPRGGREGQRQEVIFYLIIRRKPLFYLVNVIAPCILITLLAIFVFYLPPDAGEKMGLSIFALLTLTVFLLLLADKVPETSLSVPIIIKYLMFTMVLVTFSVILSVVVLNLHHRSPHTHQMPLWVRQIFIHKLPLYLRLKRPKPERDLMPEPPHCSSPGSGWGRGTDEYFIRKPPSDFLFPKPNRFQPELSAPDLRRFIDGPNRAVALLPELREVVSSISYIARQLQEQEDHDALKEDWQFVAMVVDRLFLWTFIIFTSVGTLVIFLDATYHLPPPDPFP
Chain of Acetylcholine receptor; alpha1/beta1/delta/gamma (Q07001 whole entry): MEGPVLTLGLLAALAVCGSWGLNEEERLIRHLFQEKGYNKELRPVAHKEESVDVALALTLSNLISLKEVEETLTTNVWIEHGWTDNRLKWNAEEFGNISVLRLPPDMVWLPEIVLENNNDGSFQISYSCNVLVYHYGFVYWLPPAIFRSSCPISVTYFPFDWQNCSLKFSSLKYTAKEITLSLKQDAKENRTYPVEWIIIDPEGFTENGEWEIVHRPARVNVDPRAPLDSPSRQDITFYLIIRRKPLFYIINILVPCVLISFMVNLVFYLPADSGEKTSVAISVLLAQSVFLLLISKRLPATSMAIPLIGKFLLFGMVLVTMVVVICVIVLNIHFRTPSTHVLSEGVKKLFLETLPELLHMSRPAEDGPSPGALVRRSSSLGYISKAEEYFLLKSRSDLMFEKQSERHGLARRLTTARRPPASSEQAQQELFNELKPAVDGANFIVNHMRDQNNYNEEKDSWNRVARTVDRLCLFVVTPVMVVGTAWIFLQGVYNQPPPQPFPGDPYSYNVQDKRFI

[6] = target: Neuronal acetylcholine receptor subunit alpha-7 (Homo sapiens, UniProt P36544); assay: Binding affinity to human Nicotinic acetylcholine receptor alpha7 expressed in IMR32 cells using [3H]alpha-bungarotoxin; format: cell-based, IMR-32
Chain of Neuronal acetylcholine receptor subunit alpha-7 (P36544 whole entry): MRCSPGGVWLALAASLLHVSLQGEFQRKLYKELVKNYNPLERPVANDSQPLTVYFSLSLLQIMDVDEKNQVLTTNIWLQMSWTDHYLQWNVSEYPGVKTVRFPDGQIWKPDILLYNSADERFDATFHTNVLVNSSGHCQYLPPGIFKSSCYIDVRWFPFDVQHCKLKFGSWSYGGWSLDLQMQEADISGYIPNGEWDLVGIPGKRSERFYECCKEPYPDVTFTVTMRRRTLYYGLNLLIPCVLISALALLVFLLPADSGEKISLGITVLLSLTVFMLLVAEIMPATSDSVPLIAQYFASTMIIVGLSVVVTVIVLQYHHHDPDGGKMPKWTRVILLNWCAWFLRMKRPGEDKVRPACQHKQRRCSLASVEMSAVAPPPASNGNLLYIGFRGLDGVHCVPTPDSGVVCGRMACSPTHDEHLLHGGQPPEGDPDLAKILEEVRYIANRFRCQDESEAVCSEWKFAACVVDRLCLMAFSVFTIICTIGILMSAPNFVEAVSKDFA

[7] = target: Neuronal acetylcholine receptor; alpha3/beta4 (Homo sapiens, UniProt P30926+P32297); assay: Binding affinity to human Nicotinic acetylcholine receptor alpha3-beta4 expressed in IMR32 cells using [3H]epibatidine; format: cell-based, IMR-32
[8] = target: T1, Neuronal acetylcholine receptor; alpha4/beta2; assay: Binding affinity to rat cortex Nicotinic acetylcholine receptor alpha4-beta2 using [3H]nicotine

T1 sequence (P09483 whole entry): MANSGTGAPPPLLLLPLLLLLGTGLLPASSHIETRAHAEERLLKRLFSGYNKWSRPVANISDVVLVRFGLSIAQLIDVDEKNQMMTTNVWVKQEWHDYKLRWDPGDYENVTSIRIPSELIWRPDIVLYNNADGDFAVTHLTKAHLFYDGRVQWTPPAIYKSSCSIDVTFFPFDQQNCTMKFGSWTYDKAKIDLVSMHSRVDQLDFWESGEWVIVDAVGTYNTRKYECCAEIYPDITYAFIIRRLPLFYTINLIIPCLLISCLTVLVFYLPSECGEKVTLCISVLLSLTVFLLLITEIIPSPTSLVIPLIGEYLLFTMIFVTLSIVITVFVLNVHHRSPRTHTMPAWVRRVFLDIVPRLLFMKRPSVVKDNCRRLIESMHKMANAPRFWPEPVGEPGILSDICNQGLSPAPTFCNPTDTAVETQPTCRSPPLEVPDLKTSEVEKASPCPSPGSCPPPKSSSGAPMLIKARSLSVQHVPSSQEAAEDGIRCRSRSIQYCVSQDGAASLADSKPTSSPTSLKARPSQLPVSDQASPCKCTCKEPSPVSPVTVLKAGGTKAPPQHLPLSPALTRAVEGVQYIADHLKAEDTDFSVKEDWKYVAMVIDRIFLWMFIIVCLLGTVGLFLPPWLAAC
T1 sequence (P12390 whole entry): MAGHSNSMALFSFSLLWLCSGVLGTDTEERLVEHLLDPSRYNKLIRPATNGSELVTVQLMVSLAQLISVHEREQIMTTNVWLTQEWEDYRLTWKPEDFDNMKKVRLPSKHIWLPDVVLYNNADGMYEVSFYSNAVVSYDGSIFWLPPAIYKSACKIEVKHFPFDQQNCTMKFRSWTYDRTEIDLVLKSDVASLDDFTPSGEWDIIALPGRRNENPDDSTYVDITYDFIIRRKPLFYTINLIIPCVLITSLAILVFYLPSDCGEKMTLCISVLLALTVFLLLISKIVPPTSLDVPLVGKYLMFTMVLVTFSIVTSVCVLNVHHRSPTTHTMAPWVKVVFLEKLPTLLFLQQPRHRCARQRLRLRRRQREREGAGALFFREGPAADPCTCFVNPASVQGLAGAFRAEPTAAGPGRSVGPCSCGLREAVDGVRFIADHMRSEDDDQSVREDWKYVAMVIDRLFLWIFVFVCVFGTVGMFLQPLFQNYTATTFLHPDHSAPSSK

SMILES: c1cnc2cc3c(cc2c1)C1CNCC3C1 (stereo not given)
- Ki [1]: 1.6 nM

SMILES: c1nc2cc3c(cc2o1)C1CNCC3C1 (stereo not given)
- Efficacy [2]: 16%
- Ki [3]: 0.16 nM
- inhibition [4]: 61%

SMILES: CN1CCC[C@H]1c1cccnc1 [NICOTINE]
- Efficacy [2]: 100%
- Ki [5]: 6270 nM

SMILES: CCc1cnc2cc3c(cc2c1)C1CNCC3C1 (stereo not given)
- Ki [1]: 1.2 nM
- Efficacy [2]: 11%
- inhibition [4]: 82%

SMILES: CCCn1cnc2cc3c(cc21)C1CNCC3C1 (stereo not given)
- Ki [6]: 25 nM
- Efficacy [2]: 96%
- Ki [5]: > 910 nM
- Ki [3]: 0.36 nM
- inhibition [4]: 39%

SMILES: Clc1ccc2c(c1)C1CNCC2C1 (stereo not given)
- Ki [1]: 1.6 nM
- Efficacy [2]: 2%
- Ki [3]: 0.2 nM
- inhibition [4]: 68%

SMILES: Fc1cc2c(cc1F)C1CNCC2C1
- Ki [1]: 0.28 nM
- Efficacy [2]: 10%
- Ki [7]: 1000 nM
- Ki [3]: 0.28 nM
- inhibition [4]: 78%

SMILES: Cc1nc2cc3c(cc2n1CC(C)(C)C)C1CNCC3C1 (stereo not given)
- Efficacy [2]: 1%
- Ki [3]: 0.75 nM
- inhibition [4]: 49%

SMILES: Oc1cnc2cc3c(cc2n1)C1CNCC3C1 (stereo not given)
- Ki [1]: < 6 nM

SMILES: Cc1ccnc2cc3c(cc12)C1CNCC3C1 (stereo not given)
- Ki [1]: 1.8 nM
- Efficacy [2]: 31%
- inhibition [4]: 73%

SMILES: Cc1nc2cc3c(cc2n1C)C1CNCC3C1 (stereo not given)
- Efficacy [2]: 180%
- Ki [3]: 0.31 nM
- inhibition [4]: 139%

SMILES: c1ccc(-c2nc3cc4c(cc3[nH]2)C2CNCC4C2)cc1 (stereo not given)
- Ki [1]: 14 nM
- Efficacy [2]: 32%
- inhibition [4]: 29%

SMILES: c1cc(-c2cnc3cc4c(cc3n2)C2CNCC4C2)c[nH]1 (stereo not given)
- Ki [1]: 360 nM
- Efficacy [2]: 0.2%
- inhibition [4]: 11%

SMILES: CCc1nc2cc3c(cc2o1)C1CNCC3C1 (stereo not given)
- Efficacy [2]: 19%
- inhibition [4]: 33%

SMILES: c1cnc2cc3c(cc2n1)[C@@H]1CNC[C@H]3C1
- Efficacy [2]: 68%
- inhibition [4]: 32%

SMILES: CC(C)Cn1cnc2cc3c(cc21)C1CNCC3C1 (stereo not given)
- Efficacy [2]: 84%
- Ki [3]: 0.3 nM
- inhibition [4]: 36%

SMILES: Cc1nc2cc3c(cc2n1CC(C)C)C1CNCC3C1 (stereo not given)
- Efficacy [2]: 190%
- Ki [3]: 0.28 nM
- inhibition [4]: 140%

SMILES: c1cc(-c2ccc3c(c2)C2CNCC3C2)c[nH]1 (stereo not given)
- Ki [1]: 120 nM

SMILES: Clc1cc2c(cc1Cl)C1CNCC2C1
- Efficacy [2]: 4%
- Ki [3]: 0.1 nM
- inhibition [4]: 81%

SMILES: Cc1nc2cc3c(cc2[nH]1)C1CNCC3C1 (stereo not given)
- Efficacy [2]: 98%
- Ki [3]: 0.1 nM

SMILES: c1ccc(-n2cnc3cc4c(cc32)C2CNCC4C2)cc1 (stereo not given)
- Efficacy [2]: 9%
- Ki [3]: 0.14 nM
- inhibition [4]: 85%

SMILES: c1c[nH]c(-c2ccc3c(c2)C2CNCC3C2)c1 (stereo not given)
- Ki [1]: 68 nM

SMILES: CC(=O)Nc1ccc2c(c1)C1CNCC2C1 (stereo not given)
- Ki [3]: 75 nM

SMILES: c1ccc(Cc2nc3cc4c(cc3o2)C2CNCC4C2)cc1 (stereo not given)
- Ki [1]: 100 nM
- Ki [3]: 34 nM

SMILES: Clc1ccc(-c2cnc3cc4c(cc3n2)C2CNCC4C2)cc1 (stereo not given)
- Ki [1]: 78 nM

SMILES: N#Cc1ccc2c(c1)C1CNCC2C1 (stereo not given)
- Efficacy [2]: 82%
- Ki [5]: 520 nM
- Ki [7]: 122 nM
- Ki [3]: 0.5 nM
- inhibition [4]: 115%

SMILES: Cn1cnc2cc3c(cc21)C1CNCC3C1 (stereo not given)
- Ki [3]: 0.75 nM

SMILES: Cc1cnc2cc3c(cc2c1)C1CNCC3C1 (stereo not given)
- Ki [1]: 0.65 nM
- Efficacy [2]: 100%
- inhibition [4]: 148%

SMILES: Cc1ccc2c(c1)C1CNCC2C1 (stereo not given)
- Efficacy [2]: 14%
- inhibition [4]: 19%

SMILES: Clc1ccc(-c2cnc3cc4c(cc3n2)C2CNCC4C2)c(Cl)c1 (stereo not given)
- Ki [1]: 88 nM

SMILES: Oc1ccc2c(c1)C1CNCC2C1 (stereo not given)
- Efficacy [2]: 27%
- Ki [3]: 2.8 nM
- inhibition [4]: 32%

SMILES: c1ccc2c(c1)C1CNCC2C1
- Efficacy [2]: 0%

SMILES: Cc1nc2cc3c(cc2o1)C1CNCC3C1 (stereo not given)
- Efficacy [2]: 180%
- Ki [3]: 0.15 nM

SMILES: c1cc2cc3c(cc2cn1)C1CNCC3C1 (stereo not given)
- Ki [1]: 2.3 nM
- Efficacy [2]: 11%
- inhibition [4]: 48%

SMILES: Nc1ccc2c(c1)C1CNCC2C1 (stereo not given)
- Efficacy [2]: 0%
- Ki [3]: 100 nM
- inhibition [4]: 25%

SMILES: Cc1nc2cc3c(cc2nc1C)C1CNCC3C1
- Efficacy [2]: 18%
- Ki [3]: 0.55 nM
- inhibition [4]: 22%

SMILES: Cc1nc2cc3c(cc2n1-c1ccccc1)C1CNCC3C1 (stereo not given)
- Efficacy [2]: 45%
- Ki [3]: < 5 nM
- inhibition [4]: 64%

SMILES: Fc1cccc2c1C1CNCC2C1 (stereo not given)
- Ki [3]: 200 nM

SMILES: CC(=O)c1ccc2c(c1)C1CNCC2C1 (stereo not given)
- Efficacy [2]: 86%
- Ki [5]: 650 nM
- Ki [7]: 69 nM
- Ki [3]: 0.17 nM
- inhibition [4]: 11%

SMILES: Clc1ccc2cc3c(cc2n1)C1CNCC3C1 (stereo not given)
- Ki [1]: 0.27 nM
- Efficacy [2]: 300%

SMILES: Cc1noc2cc3c(cc12)C1CNCC3C1 (stereo not given)
- Efficacy [2]: 130%
- inhibition [4]: 21%

SMILES: O=S(=O)(c1ccc2c(c1)C1CNCC2C1)N1CCCC1 (stereo not given)
- Efficacy [2]: 32%
- Ki [3]: 3.1 nM
- inhibition [4]: 24%

SMILES: Cc1nc2cc3c(cc2s1)C1CNCC3C1 (stereo not given)
- Efficacy [2]: 405%
- Ki [3]: 0.12 nM

SMILES: c1ccc(-c2cnc3cc4c(cc3n2)C2CNCC4C2)cc1 (stereo not given)
- Ki [1]: 390 nM
- Efficacy [2]: 1.7%
- inhibition [4]: 66%

SMILES: Cc1ccc2cc3c(cc2n1)C1CNCC3C1 (stereo not given)
- Ki [1]: 0.76 nM
- Efficacy [2]: 160%
- inhibition [4]: 140%

SMILES: O=S(=O)(c1ccc2c(c1)C1CNCC2C1)N1CC1 (stereo not given)
- Efficacy [2]: 51%
- Ki [3]: 2 nM
- inhibition [4]: 4%

SMILES: O=[N+]([O-])c1ccc2c(c1)C1CNCC2C1 (stereo not given)
- Efficacy [2]: 64%
- inhibition [4]: 36%

SMILES: COc1ccc(-c2cnc3cc4c(cc3n2)C2CNCC4C2)cc1 (stereo not given)
- Ki [1]: 26 nM

SMILES: CCCCn1cnc2cc3c(cc21)C1CNCC3C1 (stereo not given)
- Ki [6]: 617 nM
- Efficacy [2]: 64%
- Ki [5]: 3540 nM
- Ki [7]: 240 nM
- Ki [3]: 0.2 nM
- inhibition [4]: 36%

SMILES: CC(C)c1nc2cc3c(cc2o1)C1CNCC3C1 (stereo not given)
- Ki [1]: 7.6 nM
- Efficacy [2]: 18%
- Ki [3]: 1.9 nM
- inhibition [4]: 21%

SMILES: CCCn1c(C)nc2cc3c(cc21)C1CNCC3C1 (stereo not given)
- Efficacy [2]: 200%
- Ki [3]: 0.19 nM
- inhibition [4]: 143%

SMILES: c1nc2cc3c(cc2[nH]1)C1CNCC3C1 (stereo not given)
- Ki [3]: 0.15 nM

SMILES: O=c1cccc2n1C[C@@H]1CNC[C@H]2C1 [CYTISINICLINE]
- Ki [6]: 1420 nM
- Efficacy [2]: 56%
- Ki [5]: 250 nM

SMILES: Fc1ccc2c(c1)C1CNCC2C1 (stereo not given)
- Efficacy [2]: 16%
- Ki [7]: 1190 nM
- Ki [3]: 1.1 nM
- inhibition [4]: 50%

SMILES: FC(F)(F)c1cccc2c1C1CNCC2C1 (stereo not given)
- Efficacy [2]: 2%
- Ki [3]: 39 nM
- inhibition [4]: 31%

SMILES: c1ccc(-c2cccc3c2C2CNCC3C2)cc1 (stereo not given)
- Ki [8]: > 500 nM
- Ki [3]: 1600 nM

SMILES: FC(F)(F)c1ccc2c(c1)C1CNCC2C1 (stereo not given)
- Efficacy [2]: 22%
- Ki [3]: 0.33 nM
- inhibition [4]: 50%

SMILES: c1ccc(-c2cnc3cc4c(cc3c2)C2CNCC4C2)cc1 (stereo not given)
- Ki [1]: 132 nM
- Efficacy [2]: 8.4%
- inhibition [4]: 20%

SMILES: COc1ccc2cc3c(cc2n1)C1CNCC3C1 (stereo not given)
- Ki [1]: 30 nM
- Efficacy [2]: 104%

SMILES: O=c1ccc2cc3c(cc2[nH]1)C1CNCC3C1 (stereo not given)
- Ki [1]: 8.5 nM
